Read-outs that look alike come from different tables or passages of the source.
Biological target: T1, human 11β-HSD1 (Homo sapiens, UniProt P28845)
T1 construct: expressed in transfected cells; host or cells: CHO cells (microsomes)
Experiment: Biological Test Example 1: inhibition of microsomal preparation of 11β-HSD1 (SPA)
Type: biochemical
Conditions: for IC50: microsomes from CHO cells overexpressing human 11β-HSD1; for inhibition at 0.1 µM: read-out: Average % inhibition at 100 nM; for Average % inhibition at 100 nM: 0.1 µM
Protocol: The inhibition of microsomal preparation of 11β-HSD1 by compounds of the invention was measured essentially as previously described (K. Solly, S. S. Mundt, H. J. Zokian, G. J. Ding, A. Hermanowski-Vosatka, B. Strulovici, and W. Zheng, High-Throughput Screening of 11-Beta-Hydroxysteroid Dehydrogenase Type 1 in Scintillation Proximity Assay Format. Assay Drug Dev Technol 3 (2005) 377-384). All reactions were carried out at room temperature in 96 well clear flexible PET Microbeta plates (PerkinElmer). The assay begins by dispensing 49 μl of substrate solution (50 mM HEPES, pH 7.4, 100 mM KCl, 5 mM NaCl, 2 mM MgCl2, 2 mM NADPH and 160 nM [^3H]cortisone (1 Ci/mmol)) and mixing in 1 μL of the test compounds in DMSO previously diluted in half-log increments (8 points) starting at 0.1 mM. After a 10 minute pre-incubation, 50 μL of enzyme solution containing microsomes isolated from CHO cells overexpressing human 11β-HSD1 (10-20 μg/ml of total protein) was added, and the plates were incubated for 90 minutes at room temperature. The reaction was stopped by adding 50 μl of the SPA beads suspension containing 10 μM 18β-glycyrrhetinic acid, 5 mg/ml protein A coated YSi SPA beads (GE Healthcare) and 3.3 μg/ml of anti-cortisol antibody (East Coast Biologics) in Superblock buffer (Bio-Rad). The plates were shaken for 120 minutes at room temperature, and the SPA signal corresponding to [^3H]cortisol was measured on a Microbeta plate reader.

T1 sequence (P28845 whole entry): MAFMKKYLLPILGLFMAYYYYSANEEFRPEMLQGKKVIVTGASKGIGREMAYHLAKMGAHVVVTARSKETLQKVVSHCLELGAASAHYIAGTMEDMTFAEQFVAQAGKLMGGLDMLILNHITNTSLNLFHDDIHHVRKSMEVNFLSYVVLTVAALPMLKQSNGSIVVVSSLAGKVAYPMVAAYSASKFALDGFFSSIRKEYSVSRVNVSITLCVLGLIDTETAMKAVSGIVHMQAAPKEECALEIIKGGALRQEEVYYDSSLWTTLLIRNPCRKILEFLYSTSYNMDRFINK

inhibition at 0.1 µM (at 100 nM) [%] | IC50 (read-out: IC50 Range) [nM] | SMILES | other results
58 | < 100 | C[C@@H](c1ccc(-c2ccc(F)cc2)cc1)N1CC[C@@](CCCO)(c2ccccc2)NC1=O (single isomer, unassigned) [Example 14 Isomer 2] | 
54.2 | < 100 | C[C@@H](c1ccc(-c2ccc(F)cc2)cc1)N1CC[C@@](CCCO)(c2ccc(F)cc2)NC1=O (single isomer, unassigned) [Example 10 Isomer 2] | 
96.1 | < 100 | C[C@@H](c1ccc(Cl)cc1)N1CC[C@](CCCO)(c2ccc(F)cc2)NC1=O [Example 13, 1-((1S)-1-(4-chlorophenyl)ethyl)-4-(4-fluorophenyl)-4-(3-hydroxypropyl)tetrahydropyrimidin-2(1H)-one] | 
 | < 100 | C[C@@H](c1ccc(-c2ccc(F)cc2F)cc1)N1CC[C@](CC(O)CO)(c2ccc(F)cc2)NC1=O (single isomer, unassigned) [Example 8 Isomer 2] | Average % inhibition at 100 nM (at 100 nM): 94.8%
97.5 | < 100 | C[C@@H](c1ccc(Br)cc1)N1CC[C@](CCCO)(c2ccc(F)cc2)NC1=O [Example 18, (R)-1-((S)-1-(4-bromophenyl)ethyl)-4-(4-fluorophenyl)-4-(3-hydroxypropyl)tetrahydropyrimidin-2(1H)-one] | 
96.3 | < 100 | C[C@@H](c1ccc(-c2ccc(F)cc2F)cc1)N1CC[C@](CC(O)CO)(c2ccc(F)cc2)NC1=O (single isomer, unassigned) [Example 8 Isomer 1] | 
95.5 | < 100 | C[C@@H](c1ccc(-c2ccc(F)cc2)cc1)N1CC[C@](CCCO)(c2ccccc2)NC1=O (single isomer, unassigned) [Example 14 Isomer 1] | 
 | < 100 | C[C@@H](c1ccc(-c2ccc(F)cc2)cc1)N1CC[C@@](CC(O)CO)(c2ccc(F)cc2)NC1=O (single isomer, unassigned) [Example 9 Isomer 3] | Average % inhibition at 100 nM (at 100 nM): 38.5%
96.1 | < 100 | COc1ccc([C@H](C)N2CC[C@](CCCO)(c3ccc(F)cc3)NC2=O)cc1 [Example 16, (R)-4-(4-fluorophenyl)-4-(3-hydroxypropyl)-1-((S)-1-(4-methoxyphenyl)ethyl)tetrahydropyrimidin-2(1H)-one] | 
102 | < 100 | C[C@@H](c1ccc(-c2ccc(F)cc2)cc1)N1CC[C@](CCCO)(c2ccc(F)cc2)NC1=O (single isomer, unassigned) [Example 10 Isomer 1] | 
47.7 | < 100 | C[C@@H](c1ccc(-c2ccc(F)cc2F)cc1)N1CC[C@@](CCO)(c2ccc(F)cc2)NC1=O (single isomer, unassigned) [Example 6 Isomer 2] | 
71 | < 100 | C[C@@H](c1ccc(-c2ccc(F)cc2F)cc1)N1CC[C@@](CCCO)(c2ccc(F)cc2)NC1=O (single isomer, unassigned) [Example 7 Isomer 2] | 
97.2 | < 100 | C[C@@H](c1ccc(-c2ccc(F)cc2F)cc1)N1CC[C@](CCO)(c2ccc(F)cc2)NC1=O (single isomer, unassigned) [Example 6 Isomer 1] | 
94.5 | < 100 | C[C@@H](c1ccc(-c2ccc(F)cc2)cc1)N1CC[C@](CC(O)CO)(c2ccc(F)cc2)NC1=O (single isomer, unassigned) [Example 9 Isomer 1] | 
 | < 100 | C[C@@H](c1ccc(-c2ccc(F)cc2)cc1)N1CC[C@](CC(O)CO)(c2ccc(F)cc2)NC1=O (single isomer, unassigned) [Example 9 Isomer 2] | Average % inhibition at 100 nM (at 100 nM): 93.5%
94.8 | < 100 | C[C@@H](c1ccc(-c2ccc(F)cc2F)cc1)N1CC[C@](CCCO)(c2ccc(F)cc2)NC1=O (single isomer, unassigned) [Example 7 Isomer 1] | 

Second part, the compound before the results:

SMILES | inhibition at 0.1 µM (at 100 nM) [%] | IC50 (read-out: IC50 Range) [nM] | other results
C=CC[C@@]1(c2ccc(F)cc2)CCN([C@@H](C)c2ccc(Br)cc2)C(=O)N1 (single isomer, unassigned) [Example 2 Isomer 2] |  |  | IC50 (IC50 Range): < 100 nM; inhibition at 0.1 µM: 69.5%
C[C@@H](C1CCCCC1)N1CC[C@](CCCO)(c2ccccc2)N(C)C1=O [Example 22, (R)-1-((S)-1-cyclohexylethyl)-4-(3-hydroxypropyl)-3-methyl-4-phenyltetrahydropyrimidin-2(1H)-one] | 30 | > 100 | 
C[C@@H](c1ccc(Cl)cc1)N1CC[C@](CCO)(c2ccc(F)cc2)NC1=O [Example 12, (S)-1-((S)-1-(4-chlorophenyl)ethyl)-4-(4-fluorophenyl)-4-(2-hydroxyethyl)tetrahydropyrimidin-2(1H)-one] | 96.9 | < 100 | 
C[C@@H](c1ccc(Br)cc1)N1CC[C@](CC(C)(C)C#N)(c2ccccc2)NC1=O [Example 23, 3-((R)-1-((S)-1-(4-bromophenyl)ethyl)-2-oxo-4-phenylhexahydropyrimidin-4-yl)-2,2-dimethylpropanenitrile] | 95.8 | < 100 | 
C=CC[C@]1(c2ccc(F)cc2)CCN([C@@H](C)c2ccc(Br)cc2)C(=O)N1C (single isomer, unassigned) [Example 3 Isomer 1] |  | < 100 | inhibition at 0.1 µM: 51.2%
C[C@@H](c1ccc(-c2ccn(C)c(=O)c2)cc1)N1CC[C@](CC(C)(C)O)(c2ccccc2)NC1=O [Example 21, (S)-4-(2-hydroxy-2-methylpropyl)-1-((S)-1-(4-(1-methyl-2-oxo-1,2-dihydropyridin-4-yl)phenyl)ethyl)-4-phenyltetrahydropyrimidin-2(1H)-one] | 93.9 | < 100 | 
C[C@@H](c1ccc(-c2ccc(F)cc2)cc1)N1CC[C@@](CC(O)CO)(c2ccc(F)cc2)NC1=O (single isomer, unassigned) [Example 9 Isomer 4] |  | > 100 | Average % inhibition at 100 nM (at 100 nM): 16.5%
C[C@@H](c1ccc(Br)cc1)N1CC[C@@](CCCO)(c2ccc(F)cc2)N(C)C1=O (single isomer, unassigned) [Example 11 Isomer 2] | 26.1 | > 100 | 
Cc1cccc(N2CC[C@](C)(c3ccccc3)NC2=O)c1 [Example 1, (R)-4-methyl-4-phenyl-1-m-tolyltetrahydropyrimidin-2(1H)-one] |  |  | IC50 (IC50 Range): 100 to 1000 nM; inhibition at 0.1111 µM (read-out: Average % inhibition at 111.1 nM): 49.4%
C[C@@H](c1ccc(Br)cc1)N1CC[C@](CC(C)(C)O)(c2ccccc2)NC1=O [Example 20, (S)-1-((S)-1-(4-bromophenyl)ethyl)-4-(2-hydroxy-2-methylpropyl)-4-phenyltetrahydropyrimidin-2(1H)-one] | 94.4 | < 100 | 
C=CC[C@@]1(c2ccc(F)cc2)CCN([C@@H](C)c2ccc(Br)cc2)C(=O)N1C (single isomer, unassigned) [Example 3 Isomer 2] |  | < 100 | inhibition at 0.1 µM: 60.5%
C[C@@H](C1CCCCC1)N1CC[C@](CCCO)(c2ccccc2)NC1=O [Example 15, (R)-1-((S)-1-cyclohexylethyl)-4-(3-hydroxypropyl)-4-phenyltetrahydropyrimidin-2(1H)-one] | 96.1 | < 100 | 
COc1ccc([C@H](C)N2CC[C@](CCO)(c3ccc(F)cc3)NC2=O)cc1 [Example 17, (S)-4-(4-fluorophenyl)-4-(2-hydroxyethyl)-1-((S)-1-(4-methoxyphenyl)ethyl)tetrahydropyrimidin-2(1H)-one] | 94.3 | < 100 | 
C[C@@H](c1ccc(Br)cc1)N1CC[C@](CCCNS(C)(=O)=O)(c2ccc(F)cc2)NC1=O [Example 19, N-(3-((R)-1-((S)-1-(4-bromophenyl)ethyl)-4-(4-fluorophenyl)-2-oxohexahydropyrimidin-4-yl)propyl)methanesulfonamide] |  | < 100 | inhibition at 0.1 µM: 96%
C[C@@H](c1ccc(Br)cc1)N1CC[C@](CCCO)(c2ccc(F)cc2)N(C)C1=O (single isomer, unassigned) [Example 11 Isomer 1] | 64.4 | < 100 | 
